The results in this text go back to US11845748B2, “Bicyclic pyridine N-oxide derivatives useful as a factor XIa inhibitors” (Janssen Pharmaceutica NV, priority 2021, dated 2023).

As a reminder, the IC50 is the concentration at which inhibition is half-maximal.

Some results are limits rather than exact numbers.

The target in one assay is Factor XIa (Homo sapiens, UniProt P03951). Put plainly: Factor XIa inhibition assay utilizing a fluorophore-quencher pair peptide substrate (FLINT). As to conditions: kinetic reads at 5 min intervals over 30 min; 30 min preincubation; 5Fam-KLTRAETV-K5Tamra substrate; read-out: FXIa (KIN) IC50. Type of assay: biochemical. The text has this: Biological Example 1: Factor XIa Inhibition Assay Utilizing a Fluorophore-Quencher Pair Peptide Substrate
A fluorescence intensity (FLINT) based assay was used to monitor inhibition of Factor XIa. The peptide substrate, 5Fam-KLTRAETV-K5Tamra (purchased from New England Peptide) was chosen based on the […]. Conversion of zymogen […]. The custom peptide used in this assay was based on the Arg146 cleavage site of FXI. The peptide substrate was designed with a fluorophore-quencher pair, where the fluorescence is quenched until FXIa cleaves the 8-mer peptide after the Arg residue. The substrate KM was fit to a substrate inhibition model whereby kcat=0.86 s^−1, KM=12.4 μM, Ki=61.6 μM with an enzymatic efficiency, and kcat/KM=69523 M^−1s^−1.
The Factor XIa FLINT assay was used with the following 5Fam-KLTRAETV-K5Tamra assay buffer: 50 mM Tris, pH 7.5, 100 mM NaCl, 5 mM CaCl2, 0.1 mg/mL BSA, 0.03% CHAPS. Assay buffer was prepared by mixing all ingredients fresh. 5Fam-KLTRAETV-K5Tamra peptide substrate was first prepared at 10 mM in 100% DMSO, then diluted to 3 mM in 100% DMSO. Assay buffer was then added directly to the 3 mM stock of substrate to prepare the 30 μM 2× working concentration (15 μM final concentration). The 2× Factor XIa stock solution was prepared by diluting 6.562 μM stock in 1× assay buffer for a 200 pM working stock solution (100 pM final concentration).
Test compound(s) were run in an 11-point, 3-fold serial dilution with a final top compound concentration of 100 nM. Final DMSO in assay was 2%. FXIa was preincubated with compound for 30-minutes and then substrate was added to initiate the reaction. The assay was run with either end point (EP) reads at 30 min or kinetic (KIN) reads at 5 min intervals over 30 minutes. The time course was linear using 100 μM FXIa greater than 30 minutes. More specifically, the assay was run as follows: • 100 nL of 0.01 mM test compound was dispensed into black 384-well non-binding Greiner BioOne 784900 plate for 0.1 μM final concentration; • 5 μL of 1× assay buffer was dispensed to column 24 (low control) and 5 μL 2× Factor XIa solution was dispensed to columns 1-23 (column 23 high control); • the plate was centrifuged with a “cover” plate at 500 rpm for 1 min the plate was pre-incubated for 30 minutes at room temperature with plate covered; • 5 μL of 2× 5Fam-KLTRAETV-K5Tamra peptide substrate was dispensed into the entire plate, columns 1-24; • the plate was centrifuged with a “cover” plate at 500 rpm for 1 min; • the plate was read monitoring fluorescence intensity on the BMG PHERAStar at room temperature, using fluorescence module 485 nm/520 nm.
Percent inhibition (IC50) curves were generated per compound tested, and data was analyzed using a 4-parameter logistic fit using GeneData Screener. The relative fluorescence unit (RFU) values were normalized to percent inhibition using the following equation: % inhibition=((HC−LC)−(compound−LC)/(HC−LC))*100 where LC—low control=mean signal of no Factor XIa or 100% inhibition of Factor XIa; HC—high control=mean signal of Factor XIa+5Fam-KLTRAETV-K5Tamra peptide substrate with DMSO only.
(§1) An 11-point dose response curve for the test compound(s) was generated using GENDATA to determine IC50 value based on the following equation: Y=Bottom+(Top−Bottom)/(1+10^((log IC50−X)*HillSlope))
where Y is the % inhibition in the presence of X inhibitor concentration, Top=high control=mean signal of Factor XIa+5Fam-KLTRAETV-K5Tamra peptide substrate with DMSO only; Bottom=low control−mean signal of no Factor XIa or 100% inhibition of Factor XIa; HillSlope—Hill coefficient; and IC50=concentration of compound with 50% inhibition in relation to top/high control. […]

The target in another assay is human plasma kallikrein (Homo sapiens, UniProt P03952). The experiment in a line: Kallikrein inhibition assay utilizing a quenched AMC peptide substrate (FLINT). The class given is biochemical. The conditions noted are these: kinetic reads at 5 min intervals over 30 min; 30 min preincubation; Z-Gly-Pro-Arg-AMC substrate; read-out: Kallikrein (KIN) IC50. The procedure:
Biological Example 2: Kallikrein Inhibition Assay Utilizing a Quenched AMC Peptide Substrate
A fluorescence intensity (FLINT) based assay was used to monitor inhibition of human plasma kallikrein. The peptide substrate, Z-Gly-Pro-Arg-AMC (Purchased from Bachem; Catalog #I-1150) was chosen based on its relatively low KM for kallikrein which enables running the assay at lower substrate concentrations to control background fluorescence. The kinetic parameters for this substrate were determined by fitting titration data to the Michaelis-Menten equation yielding a KM=40 μM, kcat=0.76 s^−1, and kcat/KM=18932 M^−1s^−1.
The Kallikrein FLINT assay was used with the following Z-Gly-Pro-Arg-AMC assay buffer: 50 mM Tris, pH 7.5, 100 mM NaCl, 5 mM CaCl2, 0.1 mg/mL BSA, 0.03% CHAPS. Assay buffer was prepared by mixing all ingredients fresh. 2× Z-Gly-Pro-Arg-AMC peptide substrate was prepared by diluting 10 mM stock into 1× assay buffer for a 100 μM working concentration (50 μM final concentration). The 2× kallikrein stock solution was prepared by diluting 14.76 μM stock in 1× assay buffer for a 4 nM working stock solution (2 nM final concentration).
Test compound(s) were run in an 11-point, 3-fold serial dilution with a final top compound concentration of 1 μM. Final DMSO in assay was 2%. Plasma kallikrein was pre-incubated for 30-minute with compound and then 50 μM substrate was added to initiate the reaction. The assay was run with kinetic (KIN) reads at 5 min intervals over 30 minutes. The time course was linear using 2 nM kallikrein greater than 30 minutes. More specifically, the assay was run as follows: • 100 nL of 0.1 mM test compound was dispensed into black 384-well non-binding Greiner BioOne 784900 plate for 1 μM final concentration; • 5 μL of 1× assay buffer was dispensed to columns 24 (low control) and 5 μL 2× human kallikrein enzyme solution was dispensed to columns 1-23 (column 23 high control); • the plate was centrifuged with a “cover” plate at 500 rpm for 1 min the plate was pre-incubated for 30 minutes at room temperature with plate covered; • 5 μL of 2× Z-Gly-Pro-Arg-AMC peptide substrate was dispensed into the entire plate, columns 1-24; • the plate was centrifuged with a “cover” plate at 500 rpm for 1 min; • the plate was read monitoring fluorescence intensity on the BMG PHERAStar at room temperature, using fluorescence module 340 nm/440 nm.
Percent inhibition (IC50) curves were generated per compound tested, and data was analyzed using a 4-parameter logistic fit using GeneData Screener. The relative fluorescence unit (RFU) values were normalized to percent inhibition using the following equation: % inhibition=((HC−LC)−(compound−LC)/(HC−LC))*100
where LC—low control=mean signal of […] 100% inhibition of human kallikrein enzyme; HC—high control=mean signal of […]+Z-Gly-Pro-Arg-AMC peptide substrate with DMSO only.
as §1
where Y is the % inhibition in the presence of X inhibitor concentration, Top=high control=mean signal of human kallikrein enzyme+Z-Gly-Pro-Arg-AMC peptide substrate with DMSO only; Bottom=low control−mean signal of no human kallikrein enzyme or 100% inhibition of human kallikrein enzyme; HillSlope—Hill coefficient; and IC50=concentration of compound with 50% inhibition in relation to top/high control.
Representative compounds of formula (I) of the present invention were tested according to the procedure described in Biological Example 1 and Biological Example 2 above, with results as listed in Table 2, below. Results listed in the (ER) column were measured using endpoint reads where a single fluorescence reading was measured for each well at a 30 min timepoint. […]

human plasma kallikrein, sequence (P03952 391-638 limits assumed): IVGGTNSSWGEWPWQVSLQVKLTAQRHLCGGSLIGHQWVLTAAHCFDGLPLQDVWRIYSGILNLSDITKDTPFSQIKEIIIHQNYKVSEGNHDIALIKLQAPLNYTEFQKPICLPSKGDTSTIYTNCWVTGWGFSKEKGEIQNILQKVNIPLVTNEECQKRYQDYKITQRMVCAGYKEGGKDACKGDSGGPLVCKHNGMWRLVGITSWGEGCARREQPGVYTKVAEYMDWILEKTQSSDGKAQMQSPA
human plasma kallikrein, sequence (P03952 20-390 partner limits assumed): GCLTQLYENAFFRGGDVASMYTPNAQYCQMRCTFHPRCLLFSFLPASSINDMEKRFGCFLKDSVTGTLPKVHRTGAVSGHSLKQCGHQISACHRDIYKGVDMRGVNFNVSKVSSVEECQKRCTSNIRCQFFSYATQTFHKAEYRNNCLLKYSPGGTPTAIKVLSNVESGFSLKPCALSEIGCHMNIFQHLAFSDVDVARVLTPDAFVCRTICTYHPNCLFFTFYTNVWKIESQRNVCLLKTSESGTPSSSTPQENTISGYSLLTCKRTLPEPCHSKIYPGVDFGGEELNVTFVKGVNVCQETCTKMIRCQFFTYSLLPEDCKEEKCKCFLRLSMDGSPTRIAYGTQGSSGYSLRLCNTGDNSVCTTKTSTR
Factor XIa, sequence (P03951 388-625 limits assumed): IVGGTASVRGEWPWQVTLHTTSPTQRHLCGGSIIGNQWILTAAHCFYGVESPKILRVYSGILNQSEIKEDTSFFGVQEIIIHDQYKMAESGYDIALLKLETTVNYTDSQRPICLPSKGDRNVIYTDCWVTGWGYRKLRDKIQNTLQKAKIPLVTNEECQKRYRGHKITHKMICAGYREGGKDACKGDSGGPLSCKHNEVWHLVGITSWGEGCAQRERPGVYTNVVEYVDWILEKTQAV
Factor XIa, sequence (P03951 19-387 partner limits assumed): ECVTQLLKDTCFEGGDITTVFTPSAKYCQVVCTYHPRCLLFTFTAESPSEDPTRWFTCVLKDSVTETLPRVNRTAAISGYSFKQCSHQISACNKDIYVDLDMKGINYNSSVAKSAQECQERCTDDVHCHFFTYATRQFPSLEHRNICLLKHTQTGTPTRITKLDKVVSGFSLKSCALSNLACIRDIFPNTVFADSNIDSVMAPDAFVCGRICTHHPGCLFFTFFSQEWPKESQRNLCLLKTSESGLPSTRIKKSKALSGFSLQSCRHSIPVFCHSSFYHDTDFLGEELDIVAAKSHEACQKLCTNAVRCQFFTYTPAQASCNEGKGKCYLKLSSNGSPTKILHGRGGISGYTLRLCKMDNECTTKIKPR

As to `NC(=O)c1ccc(-c2cnn(C3CCc4cc(-c5c(-n6cc(C(F)(F)F)nn6)ccc(Cl)c5F)c[n+]([O-])c43)c2)cc1F` (single isomer, unassigned) [ID No. 27, (R*)7-(4-(4-Carbamoyl-3-fluorophenyl)-1H-pyrazol-1-yl)-3-(3-chloro-2-fluoro-6-(4-(trifluoromethyl)-1H-1,2,3-triazol-1-yl)phenyl)-6,7-dihydro-5H-cyclopenta[b]pyridine 1-oxide], the IC50 at Factor XIa is over 100 nM; on human plasma kallikrein, 240 nM.

For the compound `NC(=O)c1ccc(-c2cnn(C3CCc4cc(-c5c(-n6cc(C(F)(F)F)nn6)ccc(Cl)c5F)c[n+]([O-])c43)c2)cc1F` (single isomer, unassigned) [ID No. 28, (S*)-7-(4-(4-Carbamoyl-3-fluorophenyl)-1H-pyrazol-1-yl)-3-(3-chloro-2-fluoro-6-(4-(trifluoromethyl)-1H-1,2,3-triazol-1-yl)phenyl)-6,7-dihydro-5H-cyclopenta[b]pyridine 1-oxide], the IC50 at Factor XIa is 37 nM; on human plasma kallikrein it was 67 nM.

Consider `Nc1ccc(-c2cnn(C3CCCc4cc(-c5c(-n6cnnn6)ccc(Cl)c5F)c[n+]([O-])c43)c2)c(F)n1` (single isomer, unassigned) [ID No. 31, (R*)-8-(4-(6-Amino-2-fluoropyridin-3-yl)-1H-pyrazol-1-yl)-3-(3-chloro-2-fluoro-6-(1H-tetrazol-1-yl)phenyl)-5,6,7,8-tetrahydroquinoline 1-oxide], for which the IC50 was determined as 40 nM on Factor XIa and 987 nM at human plasma kallikrein.

Take `Nc1ccc(-c2cnn(C3CCCc4cc(-c5c(-n6cnnn6)ccc(Cl)c5F)c[n+]([O-])c43)c2)c(F)n1` (single isomer, unassigned) [ID No. 32, (S*)-8-(4-(6-Amino-2-fluoropyridin-3-yl)-1H-pyrazol-1-yl)-3-(3-chloro-2-fluoro-6-(1H-tetrazol-1-yl)phenyl)-5,6,7,8-tetrahydroquinoline 1-oxide]: the IC50 at Factor XIa and at human plasma kallikrein was over 10000 nM throughout.

`COC(=O)Nc1ccc(-c2cn(C3CCc4cc(-c5c(-n6cnnn6)ccc(Cl)c5F)c[n+]([O-])c43)cn2)cc1` (centres unmarked) [ID No. 2, 3-(3-Chloro-2-fluoro-6-(1H-tetrazol-1-yl)phenyl)-7-(4-(4-((methoxycarbonyl)amino)phenyl)-1H-imidazol-1-yl)-6,7-dihydro-5H-cyclopenta[b]pyridine 1-oxide]: the results for the IC50 at Factor XIa and on human plasma kallikrein were 24 nM and 461 nM, respectively.

Consider `Cn1nncc1-c1cnn([C@H]2CCc3cc(-c4c(-n5cnnn5)ccc(Cl)c4F)c[n+]([O-])c32)c1` [ID No. 25, (S)-3-(3-Chloro-2-fluoro-6-(1H-tetrazol-1-yl)phenyl)-7-(4-(1-methyl-1H-1,2,3-triazol-5-yl)-1H-pyrazol-1-yl)-6,7-dihydro-5H-cyclopenta[b]pyridine 1-oxide], for which the IC50 on Factor XIa and on human plasma kallikrein was over 10000 nM each time.

On to `Cn1nncc1-c1cnn([C@@H]2CCc3cc(-c4c(-n5cnnn5)ccc(Cl)c4F)c[n+]([O-])c32)c1` [ID No. 26, (R)-3-(3-Chloro-2-fluoro-6-(1H-tetrazol-1-yl)phenyl)-7-(4-(1-methyl-1H-1,2,3-triazol-5-yl)-1H-pyrazol-1-yl)-6,7-dihydro-5H-cyclopenta[b]pyridine 1-oxide], for which the half-inhibitory concentration (IC50) on Factor XIa was found to be 42 nM; on human plasma kallikrein, 4040 nM.
